Measured values: patent publication US9884849B2, “Fluorinated benzofuranyl-pyrimidine derivatives containing a sulfoximine group” (Bayer Pharma Aktiengesellschaft, priority 2014, dated 2018)
Like-named read-outs stand apart in the source and are kept apart here.

Assays:
CDK2/CycE = target: T1, CDK2/CycE (Homo sapiens, UniProt P24941); test: CDK2/CycE kinase assay (Method 2a, TR-FRET); type: biochemical; conditions: 10 μM ATP
T1 construct: GST; purchased ProQinase GmbH (Freiburg, Germany); host or cells: insect cells (Sf9)
Description: 2a. CDK2/CycE kinase assay:
CDK2/CycE-Inhibitory Activity of Compounds of the Present Invention was Quantified Employing the CDK2/CycE TR-FRET Assay as Described in the Following Paragraphs:
Recombinant fusion proteins of GST and human CDK2 and of GST and human CycE, expressed in insect cells (Sf9) and purified by Glutathion-Sepharose affinity chromatography, were purchased from ProQinase GmbH (Freiburg, Germany). As substrate for the kinase reaction biotinylated peptide biotin-Ttds-YISPLKSPYKISEG (C-terminus in amid form) was used which can be purchased e.g. form the company JERINI Peptide Technologies (Berlin, Germany).
For the assay 50 nl of a 100 fold concentrated solution of the test compound in DMSO was pipetted into a black low volume 384 well microtiter plate (Greiner Bio-One, Frickenhausen, Germany), 2 yl of a solution of CDK2/CycE in aqueous assay buffer [50 mM Tris/HCl pH 8.0, 10 mM MgCl2, 1.0 mM dithiothreitol, 0.1 mM sodium ortho-vanadate, 0.01% (v/v) Nonidet-P40 (Sigma)] were added and the mixture was incubated for 15 min at 22° C. to allow pre-binding of the test compounds to the enzyme before the start of the kinase reaction. […] The concentration of CDK2/CycE was adjusted depending of the activity of the enzyme lot and was chosen appropriate to have the assay in the linear range, typical concentrations were in the range of 130 ng/mL. The reaction was stopped by the addition of 5 yl of a solution of TR-FRET detection reagents (0.2 μM streptavidine-XL665 [Cisbio Bioassays, Codolet, France] and 1 nM anti-RB(pSer807/pSer811)-antibody from BD Pharmingen [#558389] and 1.2 nM LANCE EU-W1024 labeled anti-mouse IgG antibody [Perkin-Elmer, product no. AD0077]) in an aqueous EDTA-solution (100 mM EDTA, 0.2% (w/v) bovine serum albumin in 100 mM HEPES/NaOH pH 7.0).
The resulting mixture was incubated 1 h at 22° C. to allow the formation of complex between the phosphorylated biotinylated peptide and the detection reagents. Subsequently the amount of phosphorylated substrate was evaluated by measurement of the resonance energy transfer from the Eu-chelate to the streptavidine-XL. Therefore, the fluorescence emissions at 620 nm and 665 nm after excitation at 350 nm was measured in a TR-FRET reader, e.g. a Rubystar (BMG Labtechnologies, Offenburg, Germany) or a Viewlux (Perkin-Elmer). The ratio of the emissions at 665 nm and at […] was taken as the measure for the amount of phosphorylated substrate. The data were normalised (enzyme reaction without inhibitor=0% inhibition, all other assay components but no enzyme=100% inhibition).

MOLM-13 cells = test: Proliferation assay MOLM-13 (Method 3); type: cell-based, human; conditions: MOLM-13, 72-hour exposure, Cell Titre-Glo, read-out: Inhibition of MOLM-13 cell proliferation IC50
Experimental: Non-adherent MOLM-13 human acute myeloid leukemia cells (DSMZ ACC 554) were seeded at a density of 5,000 cells/well in a 96-well multititer plate in 100 μL of growth medium supplemented 10% fetal calf serum. After 24 hours, cell viability of one plate (zero-point plate) was determined with the Cell Titre-Glo Luminescent Cell Viability Assay (Promega), while 50 μL of test compound containing medium was added to the wells of the other plates (final concentrations in the range of 0.001-10 μM and DMSO controls; the final concentration of the solvent dimethyl sulfoxide was 0.5%). Cell viability was assessed after 72-hour exposure with the Cell Titre-Glo Luminescent Cell Viability Assay (Promega). IC50 values (inhibitory concentration at 50% of maximal effect) were determined by means of a 4 parameter fit on measurement data which were normalized to vehicle (DMSO) treated cells (=100%) and measurement readings taken immediately before compound exposure (=0%).

HeLa-MaTu-ADR cells = test: Proliferation assay HeLa-MaTu-ADR (Method 3); type: cell-based, human; conditions: 4 days, crystal violet, read-out: Inhibition of HeLa-MaTu-ADR cell proliferation IC50
Experimental: (§1) Cultivated tumour cells (HeLa, human cervical tumour cells, ATCC CCL-2; NCI-H460, human non-small cell lung carcinoma cells, ATCC HTB-177; A2780, human ovarian carcinoma cells, ECACC #93112519; DU 145, hormone-independent human prostate carcinoma cells, ATCC HTB-81; HeLa-MaTu-ADR, multidrug-resistant human cervical carcinoma cells, EPO-GmbH Berlin; Caco-2, human colorectal carcinoma cells, ATCC HTB-37; B16F10, mouse melanoma cells, ATCC CRL-6475) were plated at a density of 5,000 cells/well (DU145, HeLa-MaTu-ADR), 3,000 cells/well (NCI-H460, HeLa), 2,500 cells/well (A2780), 1,500 cells/well (Caco-2), or 1,000 cells/well (B16F10) in a 96-well multititer plate in 200 μL of their respective growth medium supplemented 10% fetal calf serum. After 24 hours, the cells of one plate (zero-point plate) were stained with crystal violet (see below), while the medium of the other plates was replaced by fresh culture medium (200 μl), to which the test substances were added in various concentrations (0 μM, as well as in the range of 0.001-10 μM; the final concentration of the solvent dimethyl sulfoxide was 0.5%). The cells were incubated for 4 days in the presence of test substances. Cell proliferation was determined by staining the cells with crystal violet: the cells were fixed by adding 20 μl/measuring point of an 11% glutaric aldehyde solution for 15 minutes at room temperature. After three washing cycles of the fixed cells with water, the plates were dried at room temperature. The cells were stained by adding 100 μl/measuring point of a 0.1% crystal violet solution (pH 3.0). After three washing cycles of the stained cells with water, the plates were dried at room temperature. The dye was dissolved by adding 100 μl/measuring point of a 10% acetic acid solution. The extinction was determined by photometry at a wavelength of 595 nm. The change of cell number, in percent, was calculated by normalization of the measured values to the extinction values of the zero-point plate (=0%) and the extinction of the untreated (0 μm) cells (=100%). The IC50 values (inhibitory concentration at 50% of maximal effect) were determined by means of a 4 parameter fit.

A2780 cells = test: Proliferation assay A2780 (Method 3); type: cell-based, human; conditions: A2780, 4 days, crystal violet, read-out: Inhibition of A2780 cell proliferation IC50
Experimental: as §1

NCI-H460 cells = test: Proliferation assay NCI-H460 (Method 3); type: cell-based, human; conditions: NCI-H460, 4 days, crystal violet, read-out: Inhibition of NCI-H460 cell proliferation IC50
Experimental: as §1

Row | IC50 (CDK2/CycE) [nM] | IC50 (MOLM-13 cells; Homo sapiens, MOLM-13, 72 h) [nM] | IC50 (HeLa-MaTu-ADR cells; Homo sapiens, 96 h) [nM] | IC50 (A2780 cells; Homo sapiens, A2780, 96 h) [nM] | IC50 (NCI-H460 cells; Homo sapiens, NCI-H460, 96 h) [nM] | IC50 (MOLM-13 cells) [nM] | IC50 (HeLa-MaTu-ADR cells) [nM] | IC50 (A2780 cells) [nM] | IC50 (NCI-H460 cells) [nM] | SMILES
1 | 56 | 17 | 60 | 23 | 104 |  |  |  |  | CS(=O)(Cc1cc(F)cc(Nc2ncc(F)c(-c3ccc(F)c4ccoc34)n2)c1)=NC#N (racemic) [Example 7, (rac)-[(3-Fluoro-5-{[5-fluoro-4-(4-fluoro-1-benzofuran-7-yl)pyrimidin-2-yl]amino}benzyl)(methyl)-oxido-λ^6-sulfanylidene]cyanamide]
2 | 50 | 37 |  | 37 | 112 |  |  |  |  | CS(=N)(=O)Cc1cc(F)cc(Nc2ncc(F)c(-c3ccc(F)c4ccoc34)n2)c1 (racemic) [Example 10, (rac)-5-Fluoro-4-(4-fluoro-1-benzofuran-7-yl)-N-{3-fluoro-5-[(S-methylsulfonimidoyl)-methyl]-phenyl}-pyrimidin-2-amine]
3 | 41 |  | 37 | 34 | 118 |  |  |  |  | Cc1cc(CS(C)(=O)=NC#N)cc(Nc2ncc(F)c(-c3ccc(F)c4ccoc34)n2)c1 (racemic) [Example 13, (rac)-[(3-{[5-Fluoro-4-(4-fluoro-1-benzofuran-7-yl)pyrimidin-2-yl]amino}-5-methylbenzyl)-(methyl)oxido-λ^6-sulfanylidene]cyanamide]
4 | 257 | 57 | 98 | 98 | 192 |  |  |  |  | CS(=O)(Cc1cc(Nc2ncc(F)c(-c3ccc(F)c4ccoc34)n2)cc(S(F)(F)(F)(F)F)c1)=NC#N (racemic) [Example 17, (rac)-{[3-{[5-fluoro-4-(4-fluoro-1-benzofuran-7-yl)pyrimidin-2-yl]amino}-5-(pentafluoro-λ^6-sulfanyl)benzyl](methyl)oxido-λ^6-sulfanylidene}cyanamide]
5 | 73 |  |  | 32 | 83 |  | 200 |  |  | CS(=N)(=O)Cc1cc(F)cc(Nc2ncc(F)c(-c3ccc(F)c4ccoc34)n2)c1 (single isomer, unassigned) [Example 11, 5-Fluoro-4-(4-fluoro-1-benzofuran-7-yl)-N-{3-fluoro-5-[(S-methylsulfonimidoyl)-methyl]-phenyl}-pyrimidin-2-amine]
6 | 48 |  |  |  |  |  | 88 | 35 | 59 | CS(=N)(=O)Cc1cc(F)cc(Nc2ncc(F)c(-c3ccc(F)c4ccoc34)n2)c1 (single isomer, unassigned) [Example 12, 5-Fluoro-4-(4-fluoro-1-benzofuran-7-yl)-N-{3-fluoro-5-[(S-methylsulfonimidoyl)-methyl]-phenyl}-pyrimidin-2-amine]

More lines, now with the values behind:

Row | SMILES | IC50 (CDK2/CycE) [nM] | IC50 (MOLM-13 cells; Homo sapiens, MOLM-13, 72 h) [nM] | IC50 (HeLa-MaTu-ADR cells; Homo sapiens, 96 h) [nM] | IC50 (A2780 cells; Homo sapiens, A2780, 96 h) [nM] | IC50 (NCI-H460 cells; Homo sapiens, NCI-H460, 96 h) [nM] | IC50 (MOLM-13 cells) [nM] | IC50 (HeLa-MaTu-ADR cells) [nM] | IC50 (A2780 cells) [nM] | IC50 (NCI-H460 cells) [nM]
7 | CS(=O)(Cc1cccc(Nc2ncc(F)c(-c3ccc(F)c4ccoc34)n2)c1)=NC#N (racemic) [Example 1, (rac)-[(3-{[5-Fluoro-4-(4-fluoro-1-benzofuran-7-yl)pyrimidin-2-yl]amino}benzyl)(methyl)oxido-λ^6-sulfanylidene]cyanamide] | 75 | 83 | 134 | 46 | 189 |  |  |  | 
8 | CS(=N)(=O)Cc1cccc(Nc2ncc(F)c(-c3ccc(F)c4ccoc34)n2)c1 (racemic) [Example 4, (rac)-5-Fluoro-4-(4-fluoro-1-benzofuran-7-yl)-N-{3-[(S-methylsulfonimidoyl)-methyl]phenyl}-pyrimidin-2-amine] | 110 | 108 | 143 | 53 | 181 |  |  |  | 
9 | Cc1cc(CS(C)(=N)=O)cc(Nc2ncc(F)c(-c3ccc(F)c4ccoc34)n2)c1 (racemic) [Example 16, (rac)-5-Fluoro-4-(4-fluoro-1-benzofuran-7-yl)-N-{3-methyl-5-[(S-methylsulfonimidoyl)-methyl]phenyl}pyrimidin-2-amine] | 80 | 33 | 41 | 35 | 120 |  |  |  | 
10 | CS(=N)(=O)Cc1cc(Nc2ncc(F)c(-c3ccc(F)c4ccoc34)n2)cc(S(F)(F)(F)(F)F)c1 (racemic) [Example 18, (rac)-5-Fluoro-4-(4-fluoro-1-benzofuran-7-yl)-N-{3-[(S-methylsulfonimidoyl)methyl]-5-(pentafluoro-λ^6-sulfanyl)phenyl}pyrimidin-2-amine] | 73 | 30 | 116 | 34 | 136 |  |  |  | 
11 | CS(=O)(Cc1cccc(Nc2ncc(F)c(-c3ccc(F)c4ccoc34)n2)c1)=NC#N (single isomer, unassigned) [Example 2, [(3-{[5-Fluoro-4-(4-fluoro-1-benzofuran-7-yl)pyrimidin-2-yl]amino}benzyl)(methyl)oxido-λ^6-sulfanylidene]cyanamide] | 19 |  |  |  |  | 29 | 87 | 55 | 117
12 | CS(=O)(Cc1cccc(Nc2ncc(F)c(-c3ccc(F)c4ccoc34)n2)c1)=NC#N (single isomer, unassigned) [Example 3, [(3-{[5-Fluoro-4-(4-fluoro-1-benzofuran-7-yl)pyrimidin-2-yl]amino}benzyl)(methyl)oxido-λ^6-sulfanylidene]cyanamide] | 45 | 47 | 118 | 67 | 188 |  |  |  | 
